Patent US8729033B2, “Therapeutic, dietary or cosmetic use of compounds with specific anti-apoptotic activity toward caspase-3, and compositions containing these compounds” (Giuliani S.p.A., priority 2008, dated 2014)

Biological target: T1, caspase-3 (Homo sapiens, UniProt P42574)
T1 construct: host or cells: HFDPC-c cells (follicle dermal papilla cells)
T1 sequence (P42574 29-175 limits assumed): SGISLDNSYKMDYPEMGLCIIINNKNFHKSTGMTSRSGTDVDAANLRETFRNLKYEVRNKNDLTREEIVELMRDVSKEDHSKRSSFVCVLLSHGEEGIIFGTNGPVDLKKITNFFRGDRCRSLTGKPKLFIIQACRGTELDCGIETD
T1 sequence (P42574 176-277 limits assumed): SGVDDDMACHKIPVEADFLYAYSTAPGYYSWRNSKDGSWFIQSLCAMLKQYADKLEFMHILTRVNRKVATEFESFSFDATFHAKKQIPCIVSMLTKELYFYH
Assay: Caspase-3 activity (ApoTarget Caspase-3/CPP32 colorimetric test, DEVD-pNA) in HFDPC-c cells with Staurosporine-induced apoptosis
Type: cell-based
Settings: for % Inhibition of caspase activity / % Caspase-3 activity: Staurosporine 1 μM, 24 h, number in label = concentration [μM] per Table A; for % Inhibition of caspase activity: ST alone = 0%; for % Caspase-3 activity: related to 100% activity for 1 μM Staurosporine
Method: The activity of caspase-3 has been assessed by using the colorimetric test ApoTarget™Caspase-3/CPP32 with DEVD-pNA as the substrate (BioSource International, Camarillo, Calif.). DEVD-pNA consists of a chromophore group (p-nitroanilide (p-NA) and a synthetic tetrapeptide (DEVD-Asp-Glu-Val-Asp) that represents the consensus sequence for the proteolytic cut catalyzed by caspase-3. The test was carried out by following the specifications indicated by the manufacturer in detail, using an equal amount of total protein (200 μg) for every sample.
Every sample was tested in duplicate. The activity was assessed by measuring the absorbance at 405 nm (in the graphics, ABS 405 nm) with an automatic spectrometer for 96-well plates (MPT Reader DV990 BVG) that carries out a double reading for every well.
Cellular lysis is a technique applied to extract all of the proteins in the cultured cells to be analyzed. Various lysis protocols exist: the one used in the experimental tests described here consists of the use of a highly denaturing buffer (lysis buffer, provided within the kit for the test of the caspase-3 activity). After incubation with the various active ingredients, the lysis buffer is placed onto the cell plates, a scraper is then used directly on the layer of cells to help collect the largest quantity possible. The protein extraction is then improved with incubation on ice (4° C.) for 10 minutes. The cellular debris are precipitated with centrifugation at 10,000×g for 1 minute. The lysates are retrieved and frozen at −80° C.
The activity of caspase-3 was assessed by using the colorimetric assay ApoTarget™Caspase-3/CPP32, and the concentration of the protein was assessed by using the Lowry-Ciocalteau method and a BSA standard as described above.
The incubation was also maintained for 24 hours in this case.
At the end of the incubation the plates in which the cells were cultivated were laid out on a bed of ice, washed once in cold PBS and incubated in the lysis buffer. After the lysis, the protein assay and the caspase-3 activity test was carried out.

% Inhibition of caspase activity	% Inhibition of caspase activity (listed as R20)	% Caspase-3 activity	% Caspase-3 activity (listed as R20)	% Inhibition of caspase activity (listed as Z4)	% Caspase-3 activity (listed as Z4)	SMILES	induction of apoptosis (caspase-3 activity) (1 μM, 24-hour incubation, FIG. 1)
32.10%	46.27%	67.90%	53.73%	–	–	C[C@@H]1O[C@@H](OC[C@H]2O[C@@H](Oc3c(-c4ccc(O)c(O)c4)oc4cc(O)cc(O)c4c3=O)[C@H](O)[C@@H](O)[C@@H]2O)[C@H](O)[C@H](O)[C@H]1O [Example R2, Rutin]	–
21.64%	–	78.36%	–	–	–	Cl.Cl.Cl.NCCCCNCCCN [Example S0.1, Spermidine trihydrochloride]	–
29.00%	–	71.00%	–	13.20%	86.80%	CC1=C(/C=C/C(C)=C/C=C/C(C)=C/C=C/C=C(C)/C=C/C=C(C)/C=C/C2=C(C)C[C@@H](O)CC2(C)C)C(C)(C)C[C@H](O)C1 [Example Z0.4, Zeaxanthin]	–
–	–	–	–	–	–	CN[C@@H]1C[C@H]2O[C@@](C)([C@@H]1OC)n1c3ccccc3c3c4c(c5c6ccccc6n2c5c31)C(=O)NC4 [Staurosporine, reference compound]	increase in caspase-3 activity
